The values that follow are results of earlier work, collected in patent EP1382610A2, “Conductive metal-containing nucleic acids” (The University of Saskatchewan, priority 1997, dated 1999).

For this data set the following is noted: imino protons.

For orientation: pKa means the pH at which an ionisable group is half protonated. Take `Nc1nc2nc[nH]c2c(=O)[nH]1` [G, guanine]: the pKa is on record as 9.4. Take `Cc1c[nH]c(=O)[nH]c1=O` [T, thymine]: the pKa is 9.9.
